Assay results published in patent US7153813B2, “Substituted aryl ketones” (Bayer Aktiengesellschaft, priority 2002, dated 2006).
Like-named read-outs stand apart in the source and are kept apart here.

Legend:
[1] = tested on: weeds; experiment: Pre-Emergence Test (Example A), damage to weeds; format: in vivo; conditions: soil sprayed 24 hours after sowing, rated after three weeks
Description: (§1) • Solvent: 5 parts by weight of acetone • Emulsifier: 1 part by weight of alkylaryl polyglycol ether
To produce a suitable preparation of active compound, 1 part by weight of active compound is mixed with the stated amount of solvent, the stated amount of emulsifier is added and the concentrate is diluted with water to the desired concentration.
Seeds of the test plants are sown in normal soil. After 24 hours, the soil is sprayed with the preparation of active compound such that the particular amount of active compound desired is applied per unit area. The concentration of active compound in the spray liquor is chosen such that the particular amount of active compound desired is applied in 1000 liters of water per hectare.
After three Weeks, the degree of damage to the plants is rated in % damage in comparison to the development of the untreated control. The figures denote: • 0%=no effect (like untreated control) • 100%=total destruction

[2] = logP determination by HPLC (EEC Directive 79/831 Annex V.A8), reverse-phase column C 18; format: physicochemical; conditions: for chromatographic logP: reverse-phase C18 HPLC column, stated in the preparation example, read-out: Log P
Description: The logP values given in the tables were determined in accordance with EEC Directive 79/831 Annex V.A8 by HPLC (High Performance Liquid Chromatography) using a reverse-phase column (C 18). Temperature: 43° C. • (a) Mobile phases for the determination in the acidic range: 0.1% aqueous phosphoric acid, acetonitrile; linear gradient from 10% acetonitrile to 90% acetonitrile—corresponding measurement data are marked a) in Table 1. • (b) Mobile phases for the determination in the neutral range: 0.01 molar aqueous phosphate buffer solution, acetonitrile; linear gradient from 10% acetonitrile to 90% acetonitrile—the corresponding measurement data are marked b) in Table 1. The calibration was carried out using unbranched alkan-2-ones (having 3 to 16 carbon atoms) with known logP values (determination of the logP values by the retention times using linear interpolation between two successive alkanones).

[3] = tested on: weeds; experiment: Post-Emergence Test (Example B), damage to weeds; format: in vivo; conditions: test plants of 5–15 cm sprayed, rated after three weeks
Description: as §1
To produce a suitable preparation of active compound, 1 part by weight of active compound is mixed with the stated amount of solvent, the stated of amount of emulsifier is added and the concentrate is diluted with water to the desired concentration.
Test plants of a height of 5–15 cm are sprayed with the preparation of active compound such that the particular amounts of active compound desired are applied per unit area. The concentration of the spray liquor is chosen such that the particular amounts of active compound desired are applied in 1000 l of water/Ha.
After three weeks, the degree of damage to the plants is rated in % damage in comparison to the development of the untreated control.
The figures denote: • 0%=no effect (like untreated control) • 100%=total destruction

[4] = HPLC, reverse-phase C 18, 43° C., acidic range: 0.1% aqueous phosphoric acid, acetonitrile, gradient 10% to 90% (marked a))

Structure (SMILES)	activity against weeds (degree of damage) [1]	logP [2, 4]	chromatographic logP [2]	activity against weeds (degree of damage) [3]	logP [2]
CCn1ncc(C(=O)c2ccc(C(F)(F)F)cc2CS(C)(=O)=O)c1O [Example 1, (1-ethyl-5-hydroxy-1H-pyrazol-4-yl)-(2-methylsulphonylmethyl-4-trifluoromethylphenyl)methanone]	strong activity	logP = 1.88^a)	1.88	strong activity	
CCn1ncc(C(=O)c2ccc(C(F)(F)F)cc2CS(C)(=O)=O)c1OCc1ccc(Br)cc1 [Example 2, [1-ethyl-5-(4-bromophenylmethoxy)-1H-pyrazol-4-yl]-(2-methylsulphonylmethyl-4-trifluoromethylphenyl)methanone]	strong activity	logP = 3.76^a)	3.76	strong activity	
Cn1ncc(C(=O)c2ccc(C(F)(F)F)cc2CS(C)(=O)=O)c1O [Example 4]	strong activity	logP = 1.57^a)			
Cn1ncc(C(=O)c2ccc(C(F)(F)F)cc2CS(C)(=O)=O)c1OCc1ccccc1 [Example 5]	strong activity			strong activity	logP = 2.94^a)
Cn1ncc(C(=O)c2ccc(C(F)(F)F)cc2CS(C)(=O)=O)c1OCc1ccc(F)cc1 [Example 6]	strong activity				logP = 3.02^a)
Cn1ncc(C(=O)c2ccc(C(F)(F)F)cc2CS(C)(=O)=O)c1OCc1ccc(Cl)cc1 [Example 7]	strong activity				logP = 3.32^a)
Cn1ncc(C(=O)c2ccc(C(F)(F)F)cc2CS(C)(=O)=O)c1OCc1ccc(Br)cc1 [Example 8]	strong activity				logP = 3.41^a)
Cc1ccc(COc2c(C(=O)c3ccc(C(F)(F)F)cc3CS(C)(=O)=O)cnn2C)cc1 [Example 9]	strong activity				logP = 3.26^a)
CCn1ncc(C(=O)c2ccc(C(F)(F)F)cc2CS(C)(=O)=O)c1OCc1ccc(Cl)cc1 [Example 10]	strong activity				logP = 3.64^a)
CCn1ncc(C(=O)c2ccc(C(F)(F)F)cc2CS(C)(=O)=O)c1OCc1ccccc1 [Example 11]	strong activity				logP = 3.26^a)
CCn1ncc(C(=O)c2ccc(C(F)(F)F)cc2CS(C)(=O)=O)c1OCc1ccc(F)cc1 [Example 12]	strong activity				logP = 3.30^a)
CCn1ncc(C(=O)c2ccc(C(F)(F)F)cc2CS(C)(=O)=O)c1OCc1ccc(C)cc1 [Example 13]	strong activity				logP = 3.57^a)
CCn1ncc(C(=O)c2ccc(C(F)(F)F)cc2CS(C)(=O)=O)c1OCc1cccc(F)c1 [Example 14]	strong activity				logP = 3.30^a)
CCn1ncc(C(=O)c2ccc(C(F)(F)F)cc2CS(C)(=O)=O)c1OCc1cccc(Cl)c1 [Example 15]	strong activity				logP = 3.60^a)
CCn1ncc(C(=O)c2ccc(C(F)(F)F)cc2CS(C)(=O)=O)c1OCc1cccc(C)c1 [Example 16]	strong activity				logP = 3.57^a)
CCn1ncc(C(=O)c2ccc(C(F)(F)F)cc2CS(C)(=O)=O)c1OCc1ccccc1F [Example 17]	strong activity				logP = 3.29^a)

Structure (SMILES)	activity against weeds (degree of damage) [1]	logP [2, 4]	chromatographic logP [2]	activity against weeds (degree of damage) [3]	logP [2]
CCn1ncc(C(=O)c2ccc(C(F)(F)F)cc2CS(C)(=O)=O)c1OCc1ccccc1Cl [Example 18]	strong activity			strong activity	logP = 3.56^a)
CCn1ncc(C(=O)c2ccc(C(F)(F)F)cc2CS(C)(=O)=O)c1OCc1ccccc1C [Example 19]	strong activity			strong activity	logP = 3.52^a)
CCn1ncc(C(=O)c2ccc(C(F)(F)F)cc2CS(C)(=O)=O)c1OCC(=O)c1ccccc1 [Example 20]	strong activity			strong activity	logP = 3.01^a)
CCn1ncc(C(=O)c2ccc(C(F)(F)F)cc2CS(C)(=O)=O)c1OC(=O)c1ccccc1 [Example 21]	strong activity				logP = 3.07^a)
CCn1ncc(C(=O)c2ccc(C(F)(F)F)cc2CS(C)(=O)=O)c1OS(=O)(=O)c1ccc(C)cc1 [Example 22]	strong activity	logP = 3.39^a)			
CCn1ncc(C(=O)c2ccc(C(F)(F)F)cc2CS(C)(=O)=O)c1OS(C)(=O)=O [Example 23]	strong activity			strong activity	logP = 2.50^a)
C#CCOc1c(C(=O)c2ccc(C(F)(F)F)cc2CS(C)(=O)=O)cnn1CC [Example 24]					logP = 2.59^a)
CCOC(=O)COc1c(C(=O)c2ccc(C(F)(F)F)cc2CS(C)(=O)=O)cnn1CC [Example 25]					logP = 2.72^a)
CCOC(=O)C(C)Oc1c(C(=O)c2ccc(C(F)(F)F)cc2CS(C)(=O)=O)cnn1CC (centres unmarked) [Example 26]					logP = 3.01^a)
CCOC(=O)COc1c(C(=O)c2ccc(C(F)(F)F)cc2CS(C)(=O)=O)cnn1C [Example 27]					logP = 2.44^a)
CCOC(=O)C(C)Oc1c(C(=O)c2ccc(C(F)(F)F)cc2CS(C)(=O)=O)cnn1C (centres unmarked) [Example 28]					logP = 2.70^a)
C#CCOc1c(C(=O)c2ccc(C(F)(F)F)cc2CS(C)(=O)=O)cnn1C [Example 29]					logP = 2.30^a)
CC1(C)CCC(=O)C(C(=O)c2ccc(C(F)(F)F)cc2CS(C)(=O)=O)C1=O (centres unmarked) [Example 30]					logP = 2.86^a)
CCSCc1cc(C(F)(F)F)ccc1C(=O)c1cnn(CC)c1O [Example 32]		logP = 3.36^a)			
CS(=O)(=O)Cc1cc(C(F)(F)F)ccc1C(=O)C1=C(Cl)CCCC1=O [Example 33]					logP = 2.42^a)
